“Also recorded” adds a separate entry of the source.
Tests used:
[1] = Acute oral toxicity, single administration, 14 days observation; details: in vivo, 2% carboxymethylcellulose with 5% Tween 80
Protocol: Animal trials were performed with mice and male rats free from specific pathogenic organisms, subject to a preliminary water diet for 18 hours. All animals were kept under observation during 14 days after a single oral administration, in order to detect any eventuality of toxic after effects. The median lethal dose LD50 and its confidence limits were computed by the graphic method of J. T. Litchfield and F. Wilcoxon.
Oral administration was used throughout the experiments, with an aqueous solution of 2% carboxymethylcellulose treated with Tween®80 (Difco or ICI) at 5% as dispersing agent.

[2] = test system: major depressive disorder; assay: Clinical study of antidepressant effect (17 HDRS items), major depressive disorder; assay type: in vivo, human
Protocol: Experimental verification of the clinical effects of 5-MOP on depressive patients was performed on 24 physically sane subjects (11 men and 13 women), suffering from a major depressive disorder.
Chosen patients afflicted with a major depressive disorder according to DSM III were given no treatment 4 days prior to the experiment, except for 5 mg nitrazepam in the evening.
The patients were divided into two groups. The first group was treated with a single daily dose of 40 mg 5-MOP during a week, administered orally at 9:00 p.m. The second group was given placebos, double blindly, under identical conditions.
To prevent any parallel effects due to the photosensitive properties of 5-MOP, patients were not exposed to ultraviolet (UV) radiation during nine hours following 5-MOP intake (corresponding to their sleep period).
After a week of treatment with 5-methoxypsoralen or placebos, clinical results were established for each patient group, and compared using the Wilcoxon test (W) within groups and the Mann-Whitney test (U) between groups.

[3] = test system: plasma melatonin; assay: Plasma melatonin in psychiatric patients and control subjects after a single oral dose of 5-MOP; assay type: in vivo, human; details: for Delta Melatonin: 11:00 p.m. minus 8:00 p.m. baseline, 40 mg oral; for Melatonin (11:00 p.m.): 3 h after 40 mg oral 5-MOP, mean ± SEM
Protocol: FIG. 1 is a bar histogram which depicts the plasma melatonin levels in six diverse groups of human subjects before and after treatment with a single dose of 40 mg 5-methoxypsoralen (5-MOP) administered orally to each subject at 8:00 p.m. The subjects were maintained in total darkness or under weak illumination (without UV) for at least 9 hours after 5-MOP intake (corresponding to the sleep period). Blood samples were taken at 8:00 p.m. prior to 5-MOP administration and at 11:00 p.m. (see text for full description of experimental details). Plasma melatonin levels were evaluated by radioimmunology after extraction in diethylether using the method of Treifenaueret, Andres. Melatonin levels were established and compared with each group of subjects with similar age means using paired t-tests and between groups using unpaired t-tests. " -melatonin is defined as the difference between plasma melatonin levels (nmd/1) after 5-MOP uptake (3 hours after administration and =before 5-MOP administration; =after 5-MOP uptake. (p=significance of difference between the two values. )
The experiment was performed on six groups of human subjects.
Control groups 1, 2 and 3 comprised respectively:
Group 1: 13 elderly, sane subjects (7 women, 6 men).
Group 2: 13 middle-aged, sane subjects (6 women, 7 men).
Group 3: 13 young, sane subjects (6 women, 7 men).
These subjects had been contacted for welfare or minor nervous problems, but were free from major psychiatric disorders or organic illnesses. Most aged subjects were waiting for admission to nursing homes.
These elderly patients had no major cardiac, hepatic, renal, endocrineous or osseous disorders, nor any evolutionary pathology.
Group 5 comprised 13 subjects (8 women, 5 men) in an acute depressive phase, showing all symptoms of a major depressive disorder in the sense of DSM III.
Group 6 comprised 13 schizophrenic subjects (6 women, 7 men), according to DSM III criteria.
The diagnosis was established by means of a structured examination for affective disorders, schizophrenia and dementia, performed on each patient by two different psychiatrists. Any patient with a history of serious attendant illnesses, such as high blood pressure, diabetes, or other endocrineous pathologies, with distorted clinical or biological results, were excluded from the study. The patients received no medicaments 4 days prior to the experiment, except for 5 mg nitrazepam or 0.25 mg trazolam in the evening. All subjects participated voluntarily in the experiment and 5 were advised of its purpose. A single dose of 40 mg 5-methoxypsoralen (5-MOP) was given orally to all subjects at 8:00 p.m. To avoid any photosensitivity effects due to psoralen, patients were maintained in total darkness or under weak illumination (without UV) for at least 9 hours after 5-MOP intake (corresponding to the sleep period).
Blood samples were taken at 8:00 p.m., prior to 5-MOP administration, and again at 11:00 p.m., by means of a stationary catheter attached to the forearm at least twenty minutes before extraction of the first blood sample. Samples were immediately centrifugated at 4° C. and refrigerated at -20° C. until quantitative analysis. Plasma levels were evaluated by radioimmunology after extraction in diethylether, using the #method of Treifenaueret, Andres.
Melatonin levels were established and compared within each group by means of paired t-tests, and between groups by unpaired t-tests.
Because age could influence endocrinous responses, only groups with similar age means were compared in these experiments.
" melatonin" has been defined as the difference between melatonin levels after 5-MOP intake and the corresponding baseline values. The parameter "p" measures the significance of the difference between two values.

[4] = test system: plasma melatonin; details: cited from earlier work
[5] = test system: rabbits; assay: Long-term toxicity, ingestive intake; assay type: in vivo; details: 300 mg/kg daily, 42 consecutive days
Description: The general, long-term toxicity of 5-MOP was also investigated in rabbits treated by ingestion and dermal application, with the following results: […]

SMILES: COc1c2occc2cc2ccc(=O)oc12 [8-methoxypsoralen, reference compound]
- LD50 at 336 h ([1]; mouse, male mice): 875 mg/kg
- LD50 at 336 h ([1]; rat, male rats): 4400 mg/kg

SMILES: COc1c2ccoc2cc2oc(=O)ccc12 [5-MOP, 4-methoxy-7H-furo[3,2-g][1]benzopyran-7-one]
- side effects ([2]; 40 mg daily oral, one week): no patient treated with 5-MOP suffered side effects
- treatment period to obtain the same improvement in behavior ([2]; 5-MOP composition compared with tricyclics): one
- HDRS J7 ([2]; 17 HDRS items, 40 mg daily oral 9:00 p.m., one week, n=12, HDRS J0 21.92 ± 8.21, W 3.5, p 0.01, placebo J7 21.16 ± 5.02): 16.67 ± 7.99
- improvement of depressive state (in words) ([2]; after a week of treatment, 40 mg daily oral, vs placebo): significant improvement; also recorded: rapid improvement from depression; also recorded: significantly improves the depressive state
- effect without UVA irradiation ([2]; without irradiation of patients by UVA): full effect
- Delta Melatonin ([3]; Control 1 (elderly sane)): 0.22 ± 0.11 nmd/1
- Melatonin (11:00 p.m.) ([3]; Control 1 (elderly sane, n=13), baseline 8:00 p.m. 0.19 ± 0.05): 0.42 ± 0.12 nmd/1
- Delta Melatonin ([3]; Control 2 (middle-aged sane)): 0.20 ± 0.08 nmd/1
- Melatonin (11:00 p.m.) ([3]; Control 2 (middle-aged sane, n=13), baseline 8:00 p.m. 0.16 ± 0.04): 0.36 ± 0.09 nmd/1
- Delta Melatonin ([3]; Control 3 (young sane)): 0.21 ± 0.09 nmd/1
- Melatonin (11:00 p.m.) ([3]; Control 3 (young sane, n=13), baseline 8:00 p.m. 0.16 ± 0.05): 0.36 ± 0.11 nmd/1
- correlation between melatonin levels and absolute 5-MOP content ([3]; at the dosage used (40 mg)): No correlation was observed
- melatonin levels after 5-MOP intake (in words) ([3]; control groups, vs before intake, t=4.59, p<0.01, t=4.18, p<0.001, t<3.92, p<0.001): substantially higher
- Melatonin (11:00 p.m.) ([3]; dements (n=13), baseline 8:00 p.m. 0.21 ± 0.06, t=3.34, p<0.01): 0.30 ± 0.08 nmd/1
- mean delta melatonin vs control group (in words) ([3]; dements vs elderly control group, r=2.4, p<0.03): substantially lower
- Delta Melatonin ([3]; dements, vs Control 1 t/p 2.4/0.025): 0.09 ± 0.06 nmd/1
- Melatonin (11:00 p.m.) ([3]; depressives (n=13), baseline 8:00 p.m. 0.22 ± 0.06, t=2.29, p<0.05): 0.39 ± 0.15 nmd/1
- mean delta melatonin vs control group (in words) ([3]; depressives vs control group, r=0.59, p<0.05, not significant): slightly lower
- Delta Melatonin ([3]; depressives, vs Control 2 t/p 0.59/0.562): 0.17 ± 0.09 nmd/1
- plasma melatonin levels after administration (in words) ([3]; psychiatric subjects): significant rise; also recorded: significant increase
- Melatonin (11:00 p.m.) ([3]; schizophrenics (n=13), baseline 8:00 p.m. 0.21 ± 0.09, t=8.31, p<0.0001): 0.48 ± 0.09 nmd/1
- Delta Melatonin ([3]; schizophrenics, vs Control 3 t/p 0.58/0.567): 0.15 ± 0.05 nmd/1
- side-effects ([3]; single 40 mg oral dose, all groups): No patient exhibited side-effects
- retinal sensitivity to light ([4]; humans, acute effect): increases
- plasma melatonin levels / melatonin secretion (in words) ([4]; humans, sane subjects, earlier reports): increased melatonin secretion; also recorded: increases in plasma melatonin levels
- effect on other endocrine hormones ([4]; perfectly sane human subjects): no discernible effect
- tolerance in toxicological tests (general condition, hematological, anatomicopathological, skin and eye, clinical chemolysis) [5]: good tolerance
- LD50 at 336 h ([1]; mouse, male mice): 8100 mg/kg
- LD50 at 336 h ([1]; rat, male rats): > 30000 mg/kg
